According to patent publication US10202360B2 (CELGENE QUANTICEL RESEARCH, INC., priority 2016, dated 2019):
pIC50: −log10 of the molar value.

Molecular target: CREBBP (Homo sapiens (Human), UniProt Q92793)
Test: In vitro enzyme inhibition assay - CREBBP inhibition (AlphaScreen, biotinylated H4-tetraacetyl peptide)
Assay type: binding
Settings: Table 28; AlphaScreen, H4-tetraacetyl peptide
Procedure: Determination of the IC50 for the CREBBP inhibitors disclosed herein was performed as follows: CREBBP was cloned and expressed in E. Coli as His-tag protein and purified by Nickel affinity and gel-filtration chromatography. […] CREBBP binding and inhibition was assessed by monitoring the interaction of biotinylated H4-tetraacetyl peptide (AnaSpec, H4K5/8/12/16(Ac), biotin-labeled) with the target using the AlphaScreen technology (Perkin Elmer). In a 384-well ProxiPlate CREBBP (50 nM final) was combined with peptide (20 nM final) in 50 mM HEPES (pH 7.3), 10 mM NaCl, 0.25 mM TCEP, 0.1% (w/v) BSA, and 0.005% (w/v) Brij-35 either in the presence of DMSO (final 0.4% DMSO) or compound dilution series in DMSO. After 20-minute incubation at room temperature, Alpha streptavidin donor beads and Nickel Chelate acceptor beads were added to a final concentration of 5 μg/mL. After two hours of equilibration, plates were read on an Envision instrument and the IC50 was calculated using a four parameter non-linear curve fit.
The ability of the compounds disclosed herein to inhibit CBP activity was quantified and the respective IC50 value was determined.

CREBBP, sequence (Q92793 1081-1197): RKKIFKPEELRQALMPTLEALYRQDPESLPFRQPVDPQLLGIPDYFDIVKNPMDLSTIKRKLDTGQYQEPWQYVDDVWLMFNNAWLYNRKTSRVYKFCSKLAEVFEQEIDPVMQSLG

SMILES | pIC50
Cc1cc(Cl)cc(Cl)c1Oc1nc(NS(=O)(=O)C(C)C)cc(-c2ccc(=O)n(C)c2)n1 [Example 34, Propane-2-sulfonic acid [2-(2,4-dichloro-6-methyl-phenoxy)-6-(1-methyl-6-oxo-1,6-dihydro-pyridin-3-yl)-pyrimidin-4-yl]-amide] | > 6.30
CCCCS(=O)(=O)Nc1cc(-c2cc(C)c(=O)n(C)c2)nc(Oc2cc(OC)ccc2C#N)n1 [Example 35, Butane-1-sulfonic acid [2-(2-cyano-5-methoxy-phenoxy)-6-(1,5-dimethyl-6-oxo-1,6-dihydro-pyridin-3-yl)-pyrimidin-4-yl]-amide] | > 6.30
CCCCS(=O)(=O)Nc1cc(-c2cc(C)c(=O)n(C)c2)nc(Oc2cc(C)ccc2C#N)n1 [Example 36, Butane-1-sulfonic acid [2-(2-cyano-5-methyl-phenoxy)-6-(1,5-dimethyl-6-oxo-1,6-dihydro-pyridin-3-yl)-pyrimidin-4-yl]-amide] | > 6.30
CCCCS(=O)(=O)Nc1cc(-c2cc(C)c(=O)n(C)c2)nc(Oc2ccccc2C#N)n1 [Example 37, Butane-1-sulfonic acid [2-(2-cyano-phenoxy)-6-(1,5-dimethyl-6-oxo-1,6-dihydro-pyridin-3-yl)-pyrimidin-4-yl]-amide] | > 6.30
CCCCS(=O)(=O)Nc1cc(-c2cc(C)c(=O)n(C)c2)nc(Oc2cc(C(C)C)ccc2Cl)n1 [Example 38, Butane-1-sulfonic acid [2-(2-chloro-5-isopropyl-phenoxy)-6-(1,5-dimethyl-6-oxo-1,6-dihydro-pyridin-3-yl)-pyrimidin-4-yl]-amide] | > 6.30
CCCS(=O)(=O)Nc1cc(-c2cc(C)c(=O)n(C)c2)nc(Oc2cc(C(C)C)ccc2Cl)n1 [Example 39, Propane-1-sunnic acid [2-(2-chloro-5-isopropyl-phenoxy)-6-(1,5-dimethyl-6-oxo-1,6-dihydro-pyridin-3-yl)-pyrimidin-4-yl]-amide] | > 6.30
Cc1cc(-c2cc(NS(=O)(=O)C(C)C)nc(Oc3cc(C(C)C)ccc3Cl)n2)cn(C)c1=O [Example 40, Propane-2-sulfonic acid [2-(2-chloro-5-isopropyl-phenoxy)-6-(1,5-dimethyl-6-oxo-1,6-dihydro-pyridin-3-yl)-pyrimidin-4-yl]-amide] | > 6.30
CCCS(=O)(=O)Nc1cc(-c2cc(C)c(=O)n(C)c2)nc(Oc2c(Cl)cccc2CC)n1 [Example 42, Propane-1-sulfonic acid [2-(2-chloro-6-ethyl-phenoxy)-6-(1,5-dimethyl-6-oxo-1,6-dihydro-pyridin-3-yl)-pyrimidin-4-yl]-amide] | > 6.30
CCc1cccc(Cl)c1Oc1nc(NS(=O)(=O)C(C)C)cc(-c2cc(C)c(=O)n(C)c2)n1 [Example 43, Propane-2-sulfonic acid [2-(2-chloro-6-ethyl-phenoxy)-6-(1,5-dimethyl-6-oxo-1,6-dihydro-pyridin-3-yl)-pyrimidin-4-yl]-amide] | > 6.30
CCn1cc(-c2cc(NS(=O)(=O)C(C)C)nc(Oc3ccc(F)cc3F)n2)cc(C)c1=O [Example 44, Propane-2-sulfonic acid [2-(2,4-difluoro-phenoxy)-6-(1-ethyl-5-methyl-6-oxo-1,6-dihydro-pyridin-3-yl)-pyrimidin-4-yl]-amide] | > 6.30
CCCn1cc(-c2cc(NS(=O)(=O)C(C)C)nc(Oc3ccc(F)cc3F)n2)cc(C)c1=O [Example 45, Propane-2-sulfonic acid [2-(2,4-difluoro-phenoxy)-6-(5-methyl-6-oxo-1-propyl-1,6-dihydro-pyridin-3-yl)-pyrimidin-4-yl]-amide] | 5.30 to 6.30
CCCCn1cc(-c2cc(NS(=O)(=O)C(C)C)nc(Oc3ccc(F)cc3F)n2)cc(C)c1=O [Example 46, Propane-2-sulfonic acid [6-(1-butyl-5-methyl-6-oxo-1,6-dihydro-pyridin-3-yl)-2-(2,4-difluoro-phenoxy)-pyrimidin-4-yl]-amide] | < 5.30
Cc1cc(-c2cc(NS(=O)(=O)C(C)C)nc(Oc3ccc(F)cc3F)n2)cn(C(C)C)c1=O [Example 47, Propane-2-sulfonic acid [2-(2,4-difluoro-phenoxy)-6-(1-isopropyl-5-methyl-6-oxo-1,6-dihydro-pyridin-3-yl)-pyrimidin-4-yl]-amide] | 5.30 to 6.30
Cc1cc(-c2cc(NS(=O)(=O)C(C)C)nc(Oc3ccc(F)cc3F)n2)cn(CC(C)C)c1=O [Example 48, Propane-2-sulfonic acid [2-(2,4-difluoro-phenoxy)-6-(1-isobutyl-5-methyl-6-oxo-1,6-dihydro-pyridin-3-yl)-pyrimidin-4-yl]-amide] | < 5.30
Cc1cc(-c2cc(NS(=O)(=O)C(C)C)nc(Oc3ccc(F)cc3F)n2)cn(CC2CC2)c1=O [Example 49, Propane-2-sulfonic acid [6-(1-cyclopropylmethyl-5-methyl-6-oxo-1,6-dihydro-pyridin-3-yl)-2-(2,4-difluoro-phenoxy)-pyrimidin-4-yl]-amide] | > 6.30
Cc1cc(-c2cc(NS(=O)(=O)C(C)C)nc(Oc3ccc(F)cc3F)n2)cn(CC2CCC2)c1=O [Example 50, Propane-2-sulfonic acid [6-(1-cyclobutylmethyl-5-methyl-6-oxo-1,6-dihydro-pyridin-3-yl)-2-(2,4-difluoro-phenoxy)-pyrimidin-4-yl]-amide] | < 5.30
CC(=O)OCCn1cc(-c2cc(NS(=O)(=O)C(C)C)nc(Oc3ccc(F)cc3F)n2)cc(C)c1=O [Example 51, Acetic acid 2-{5-[2-(2,4-difluoro-phenoxy)-6-(propane-2-sulfonylamino)-pyrimidin-4-yl]-3-methyl-2-oxo-2H-pyridin-1-yl}-ethyl ester] | 5.30 to 6.30
Cc1cc(-c2cc(NS(=O)(=O)C(C)C)nc(Oc3ccc(F)cc3F)n2)cn(CC(F)(F)F)c1=O [Example 52, Propane-2-sulfonic acid {2-(2,4-difluoro-phenoxy)-6-[5-methyl-6-oxo-1-(2,2,2-trifluoro-ethyl)-1,6-dihydro-pyridin-3-yl]-pyrimidin-4-yl}-amide] | 5.30 to 6.30
COCCn1cc(-c2cc(NS(=O)(=O)C(C)C)nc(Oc3ccc(F)cc3F)n2)cc(C)c1=O [Example 53, Propane-2-sulfonic acid {2-(2,4-difluoro-phenoxy)-6-[1-(2-methoxy-ethyl)-5-methyl-6-oxo-1,6-dihydro-pyridin-3-yl]-pyrimidin-4-yl}-amide] | 5.30 to 6.30
CCCS(=O)(=O)Nc1cc(-c2cc(C)c(=O)n(C3CC3)c2)nc(Oc2c(C)cccc2C)n1 [Example 54, Propane-1-sulfonic acid [6-(1-cyclopropyl-5-methyl-6-oxo-1,6-dihydro-pyridin-3-yl)-2-(2,6-dimethyl-phenoxy)-pyrimidin-4-yl]-amide] | 5.30 to 6.30
CCCS(=O)(=O)Nc1cc(-c2cc(C)c(=O)n(C3COC3)c2)nc(Oc2c(C)cccc2C)n1 [Example 55, Propane-1-sulfonic acid [2-(2,6-dimethyl-phenoxy)-6-(5-methyl-1-oxetan-3-yl-6-oxo-1,6-dihydro-pyridin-3-yl)-pyrimidin-4-yl]-amide] | 5.30 to 6.30
CCCCS(=O)(=O)Nc1cc(Oc2c(C)cccc2C)nc(-c2cc(C)c(=O)n(C)c2)n1 [Example 56, Butane-1-sulfonic acid [2-(1,5-dimethyl-6-oxo-1,6-dihydro-pyridin-3-yl)-6-(2,6-dimethyl-phenoxy)-pyrimidin-4-yl]-amide] | > 6.30
Cc1cc(-c2cc(NS(=O)(=O)C(C)C)nc(Oc3cccc4ccn(C)c34)n2)cn(C)c1=O [Example 57, Propane-2-sulfonic acid [6-(1,5-dimethyl-6-oxo-1,6-dihydro-pyridin-3-yl)-2-(1-methyl-1H-indol-7-yloxy)-pyrimidin-4-yl]-amide] | > 6.30
Cc1cc2c(Oc3nc(NS(=O)(=O)C(C)C)cc(-c4cc(C)c(=O)n(C)c4)n3)cccc2o1 [Example 58, N-(6-(1,5-dimethyl-6-oxo-1,6-dihydropyridin-3-yl)-2-((2-methylbenzofuran-4-yl)oxy)pyrimidin-4-yl)propane-2-sulfonamide] | > 6.30
Cc1cc(-c2cc(NS(=O)(=O)C(C)C)nc(Oc3cccc4occc34)n2)cn(C)c1=O [Example 59, N-(2-(benzofuran-4-yloxy)-6-(1,5-dimethyl-6-oxo-1,6-dihydropyridin-3-yl)pyrimidin-4-yl)propane-2-sulfonamide] | > 6.30
CCCS(=O)(=O)Nc1cc(Oc2c(C)cc(Cl)cc2Cl)nc(-c2cc(C)c(=O)n(C)c2)n1 [Example 60, Propane-1-sulfonic acid [6-(2,4-dichloro-6-methyl-phenoxy)-2-(1,5-dimethyl-6-oxo-1,6-dihydro-pyridin-3-yl)-pyrimidin-4-yl]-amide] | > 6.30
Cc1cc(-c2cc(NS(C)(=O)=O)nc(Oc3ccc(F)cc3F)n2)cn(C)c1=O [Example 61, N-(2-(2,4-difluorophenoxy)-6-(1,5-dimethyl-6-oxo-1,6-dihydropyridin-3-yl)pyrimidin-4-yl)methanesulfonamide] | > 6.30
Cc1cc(-c2cc(NS(=O)(=O)C(C)C)nc(Oc3ccc(F)cc3F)n2)cn(C)c1=O [Example 62, N-(2-(2,4-difluorophenoxy)-6-(1,5-dimethyl-6-oxo-1,6-dihydropyridin-3-yl)pyrimidin-4-yl)propane-2-sulfonamide] | > 6.30
Cc1cc(-c2cc(NS(=O)(=O)C3CC3)nc(Oc3ccc(F)cc3F)n2)cn(C)c1=O [Example 63, N-(2-(2,4-difluorophenoxy)-6-(1,5-dimethyl-6-oxo-1,6-dihydropyridin-3-yl)pyrimidin-4-yl)cyclopropanesulfonamide] | > 6.30
